What was measured:
[1] = molecular target: T1, SlLYK10c-YFP; experiment: radioligand competition on membrane fractions; assay type: binding, Solanum lycopersicum; conditions: competition with LCO-V(C18:1,NMe,35S) 1-2 nM
T1 construct: gene LYK10; SlLYK10 extracellular region fused to TM/ICR of Medicago truncatula NFP, YFP kept (about 102 kDa with 6 predicted N-glycans); expressed in Nicotiana benthamiana leaves, membrane fraction; with Serine/threonine receptor-like kinase NFP (Medicago truncatula; transmembrane and intracellular region fused to the SlLYK10 extracellular region)

[2] = molecular target: T2, PhLYK10-YFP; experiment: radioligand competition on membrane fractions; assay type: binding, Petunia hybrida; conditions: competition with LCO-V(C18:1,NMe,35S) 1-2 nM; competitor tested at 1 μM only; pH 6
T2 construct: gene LYK10; expressed in Nicotiana benthamiana leaves, membrane fraction

[3] = competitor tested at 1 μM only, pH 6
[4] = 25 mM Na-cacodylate pH 6, 1 mM CaCl2, 1 mM MgCl2, n = 3

CC(=O)N[C@H]1[C@H](O[C@H]2[C@H](O)[C@@H](NC(C)=O)C(O)O[C@@H]2CO)O[C@H](CO)[C@@H](O[C@@H]2O[C@H](CO)[C@@H](O[C@@H]3O[C@H](CO)[C@@H](O)[C@H](O)[C@H]3NC(C)=O)[C@H](O)[C@H]2NC(C)=O)[C@@H]1O (stereo partly drawn) [CO4]
Ki [1, 3]: > 1000 nM
Ki [2]: > 1000 nM

CC(=O)N[C@H]1[C@H](O[C@H]2[C@H](O)[C@@H](NC(C)=O)[C@H](O[C@H]3[C@H](O)[C@@H](NC(C)=O)[C@H](O[C@H]4[C@H](O)[C@@H](NC(C)=O)C(O)O[C@@H]4CO)O[C@@H]3CO)O[C@@H]2CO)O[C@H](CO)[C@@H](O[C@@H]2O[C@H](CO)[C@@H](O[C@@H]3O[C@H](CO)[C@@H](O[C@@H]4O[C@H](CO)[C@@H](O[C@@H]5O[C@H](CO)[C@@H](O)[C@H](O)[C@H]5NC(C)=O)[C@H](O)[C@H]4NC(C)=O)[C@H](O)[C@H]3NC(C)=O)[C@H](O)[C@H]2NC(C)=O)[C@@H]1O (stereo partly drawn) [CO8]
Ki [1, 3]: > 1000 nM
Ki [2]: > 1000 nM

CCCCCCCCCCCCCCCC(=O)N[C@H]1[C@H](O[C@H]2[C@H](O)[C@@H](NC(C)=O)[C@H](O[C@H]3[C@H](O)[C@@H](NC(C)=O)[C@H](O[C@H]4[C@H](O)[C@@H](NC(C)=O)C(O)O[C@@H]4CO)O[C@@H]3CO)O[C@@H]2CO)O[C@H](CO)[C@@H](O)[C@@H]1O (stereo partly drawn) [LCO-IV(C16:0)]
Ki [1, 4]: 354 ± 60 nM

CCCCCCCCCCCCCCCC(=O)N[C@H]1[C@H](O[C@H]2[C@H](O)[C@@H](NC(C)=O)[C@H](O[C@H]3[C@H](O)[C@@H](NC(C)=O)[C@H](O[C@H]4[C@H](O)[C@@H](NC(C)=O)C(O)O[C@@H]4COS(=O)(=O)O)O[C@@H]3CO)O[C@@H]2CO)O[C@H](CO)[C@@H](O)[C@@H]1O (stereo partly drawn) [LCO-IV(C16:0,S)]
Ki [1, 4]: 192 ± 52 nM

From publication PMC6926482, “LCO Receptors Involved in Arbuscular Mycorrhiza Are Functional for Rhizobia Perception in Legumes” (Current Biology, 2019)
